Test results: patent US20140088144A1, “INHIBITING MICROBIAL INFECTIONS” (THE UNIVERSITY OF KANSAS, priority 2012, published 2014)

Tests used:
[1] = target: T1, MBP-VirF (Shigella flexneri, UniProt P0A2T1); assay: EMSA in vitro DNA binding by VirF (MBP-VirF); type: biochemical; details: purified MBP-VirF
T1 construct: made in house; host or cells: E. coli KS 1000, plasmid pMALvirF
Description: The IPTG inducible MBP-VirF expression plasmid, pMALvirF, was constructed by cloning virF downstream and in-frame with malE (encoding maltose binding protein, MBP) in the vector pMAL-c2X (New England Biolabs, Beverly, Mass.). MBP-VirF protein (referred to as VirF for simplicity) was purified using amylose affinity chromatography at 4° C. Briefly, pMALvirF was transformed into E. coli strain KS 1000 (New England Biolabs). The cells were grown to an OD600 of 0.5, transferred to 15° C., 0.1 mM IPTG was added, and then incubated overnight with shaking Cells were harvested and resuspended in 10 ml of binding buffer (20 mM Tris, 500 mM NaCl, 1 mM EDTA 1 mM DTT, pH 7.4). Cells were lysed by three freeze thaw cycles with lysozyme (0.4 mg/ml), tris (2-carboxyethyl)phosphine (TCEP, 1 mM) and phenylmethylsulfonyl fluoride (PMSF, 1 mM), at −80° C., followed by sonication and then centrifuged to remove cell debris. […]
Binding of purified VirF to a DNA fragment containing the VirF binding site at virB was analyzed by electrophoretic mobility shift assay (EMSA) (68), in the absence or presence of SE-1. […] Gels were scanned using an Odyssey infrared imager (LI-COR, Lincoln, Nebr.), and quantified using Odyssey software, version 3.0.30. […]

[2] = tested on: Shigella invasion of L-929 cells; assay: Shigella invasion assay (gentamycin protection) in L-929 cells; type: cell-based, S. flexneri; details: for invasion decrease relative to no inhibitor: Shigella pre-grown with SE-1
Description: S. flexneri ipgD^− (SME4331) and mxiH^− (SB116) mutant strains were grown overnight at 30° C. and then diluted to an OD600 of ˜0.1 into TSB plus ampicillin. SE-1 (in DMSO) was added to the cultures at final concentrations of 0, 20, or 40 μM SE-1 and 0.3% DMSO. These cultures and SB116 (no SE-1) were grown at 37° C. in 24-well plates (each with 1.2 ml), in the temperature-controlled chamber of a PowerWave XS plate reader (BioTek Instruments). Bacterial growth was continued at 37° C. with shaking and OD600 monitored every 15 min. A separate sample of SME4331 was grown at 30° C. L-929 cells (mouse fibroblasts, used previously for Shigella invasion assays) that had been grown overnight to ˜90% confluency in 24-well plates were washed 3 times with 1 ml of RPMI each (without FBS or antibiotics), and the final wash was removed by aspiration. (All L-929 incubation steps were carried out at 37° C. in a 5% CO2 humidified atmosphere.) When the OD600 of the bacterial cultures reached 1.0 (˜2.5 h), samples were diluted 100-fold in pre-warmed RPMI (without FBS or antibiotics) and then 300 μl was added to each monolayer of L-929 cells, for a multiplicity of infection of roughly 20. In a control sample, 40 μM SE-1 and bacteria grown at 37° C. without SE-1 were added at the same time to L-929 cells. The 24-well plate was centrifuged (2000×g) for 5 min at room temperature to initiate bacterial-host cell contact, incubated for 45 min at 37° C., washed three times with 1 ml RPMI containing 50 μg/ml gentamycin (or without gentamycin for the control), and incubated at 37° C. for 2 h. Cells were again washed three times with 1 ml RPMI and then lysed in 100 μl of PBS (Mediatech) containing 0.1% triton X-100 (Promega, Madison, Wis.) for 10 min at room temperature. The 100 μl lysates from the gentamycin treated and untreated L-929 cells were mixed with 400 μl TSB, and 100 μl of 1:50 and 1:250 further dilutions were plated onto TSB agar containing ampicillin. Plates were incubated overnight at 37° C. and colonies were counted. The number of colonies obtained from gentamycin treated samples was divided by the number of colonies from control samples without gentamycin and multiplied by 100 to calculate the invasion index.

T1 sequence (P0A2T1 whole entry): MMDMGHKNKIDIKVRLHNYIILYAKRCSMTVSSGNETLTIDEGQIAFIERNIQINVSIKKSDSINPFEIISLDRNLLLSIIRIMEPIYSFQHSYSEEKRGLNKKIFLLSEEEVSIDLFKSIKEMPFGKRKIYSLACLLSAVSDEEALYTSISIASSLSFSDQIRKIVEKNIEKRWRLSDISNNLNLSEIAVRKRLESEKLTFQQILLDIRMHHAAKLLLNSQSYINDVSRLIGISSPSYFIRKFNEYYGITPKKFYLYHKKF

## CCCCN1C=C(c2ccc3ccccc3n2)C(C[N+](=O)[O-])c2ccccc21 (stereo not drawn) [Compound 1, 1-butyl-4-(nitromethyl)-3-quinolin-2-yl-4H-quinoline]
[1]
  inhibition of DNA binding by VirF: similarly inhibits
[1]; listed as SE-1
  inhibition of DNA binding by VirF: fully inhibit DNA binding
[2]; 20 μM
  invasion decrease relative to no inhibitor: 1.7 fold
[2]; 40 μM SE-1, Shigella grown at 37° C. without inhibitor
  invasion when SE-1 and Shigella added at the same time to L-929 cells: invaded to the same extent
[2]; 40 μM
  invasion decrease relative to no inhibitor: 3 fold
[2]; Shigella, L929, read-out: maximum inhibition of invasion
  inhibition at 40 µM: 70%
